Experimental data reported in PMC6501426 (Clinical Epigenetics, 2019).

Legend:
KG-1 = assay: Cell viability, trypan blue exclusion; assay type: cell-based, human; settings: Homo sapiens, KG-1; 48 h of treatment; read-out: IC50 ± SD, cell viability, KG-1
Description: (§1) U-937 (acute myeloid leukemia), RAJI (Burkitt’s lymphoma), PC-3 (prostate cancer), and MDA-MB-231 (breast cancer) cell lines were obtained from the Deutsche Sammlung für Mikroorganismen and Zellkulturen (DSZM, Braunschweig, Germany) and were cultured in RPMI 1640 (Lonza, Verviers, Belgium) complemented with 10% FBS (Lonza, Verviers, Belgium) and 1% antibiotic-antimycotic (Lonza). RPMI1788 (normal B lymphocytes) and KG-1 (acute myeloid leukemia) cell lines were obtained from the American Type Culture Collection (ATCC) and were maintained in RPMI 1640 complemented with 20% FBS and IMDM complemented with 10% FBS, respectively. Cell lines were treated with compounds at the indicated concentrations in the exponential growth phase.
(§2) Proliferation and viability of U-937, KG-1, RAJI, PC-3, MDA-MB-231, RPMI1788, PBMCs, and PHA_PBMCs were assessed by trypan blue exclusion assays at the indicated time points. Nuclear morphology changes associated with apoptosis and necrosis were evaluated by fluorescence microscopy after Hoechst and propidium iodide (PI) staining as previously described.
(§3) IC50 values of compounds against cellular viability were determined by using nonlinear regression fitting curves with GraphPad Prism 8 or CalcuSyn software The t test used for statistical analyses was performed with GraphPad Prism 8. All the tests were one-tailed, and a p value < 0.05 was considered statistically significant.

MDA-MB-231 = assay: Cell viability, trypan blue exclusion; assay type: cell-based, human; settings: Homo sapiens, MDA-MB-231; 48 h of treatment; read-out: IC50 ± SD, cell viability, MDA-MB-231
Description: as §1, §2, §3

PC-3 = assay: Cell viability, trypan blue exclusion; assay type: cell-based, human; settings: Homo sapiens, PC-3; 48 h of treatment; read-out: IC50 ± SD, cell viability, PC-3
Description: as §1, §2, §3

RAJI = assay: Cell viability, trypan blue exclusion; assay type: cell-based, human; settings: Homo sapiens, Raji; 48 h of treatment; read-out: IC50 ± SD, cell viability, RAJI
Description: as §1, §2, §3

[1] = test system: RPMI1788 (normal B lymphocytes); assay: Cell viability, trypan blue exclusion; assay type: cell-based; settings: Homo sapiens, RPMI-1788; 48 h of treatment; normal cells; read-out: IC50 ± SD, cell viability, RPMI1788
Description: as §1, §2
IC50 values of compounds against cellular viability were determined by using nonlinear regression fitting curves with GraphPad Prism 8 or CalcuSyn software The t test used for statistical analyses was performed with GraphPad Prism 8. […]

[2] = test system: PBMCs (non-proliferating, healthy donors); assay: Cell viability, trypan blue exclusion; assay type: cell-based; settings: Homo sapiens, PBMC, 48 h of treatment, read-out: IC50 ± SD, cell viability, PBMCs
Description: Peripheral blood mononuclear cells (PBMCs) from healthy donors were isolated as previously described. Freshly isolated PBMCs were either cultured and treated at 1.10^6 cells/mL (non-proliferating PBMCs) or stimulated with phytohaemoagglutinin (PHA) and interleukin (IL)-2 (called PHA_PBMCs) to induce blastogenesis in T lymphocytes before treatments as previously described. Briefly, freshly isolated PBMCs were seeded at a concentration of 2.10^6 cells/mL in RMPI 1640 supplemented with 1% antibiotic-antimycotic (Lonza, Verviers, Belgium) and 10% human AB serum (Corning, Fisher scientific, Merelbeke, Belgium). After overnight incubation, floating lymphoid cells were collected and seeded at 1.10^6 cells/mL in RMPI 1640 supplemented with 1% antibiotic-antimycotic, 5% FBS, 10% human AB serum, 1 μg/mL PHA (Gentaur, Kampenhout, Belgium), 50 U/mL IL-2 (Roche, Prophac, Luxembourg City, Luxembourg), 1% non-essential amino acids (Invitrogen, Luxembourg), 1% HEPES (Invitrogen, Luxembourg), 1% sodium pyruvate (Invitrogen, Luxembourg), and 0.1% β-mercaptoethanol (Invitrogen, Luxembourg). After 72 h, the cells were seeded at 1.10^6 cells/mL in the same mitogenic growth medium described just above and treated with test compounds.
as §2, §3

[3] = test system: DNMT3A protein level in HCT116 cells; assay: Western blot of DNMT3A protein in HCT116; assay type: cell-based, human; settings: 24 h; MC3353 effect detectable at 0.1 μM
Source text: Cells were lysed in Laemmli buffer; subsequently, the proteins were resolved by sodium dodecyl sulfate-polyacrylamide gel electrophoresis and transferred to a 0.45-μm nitrocellulose membrane (Bio-Rad Laboratories, Hercules, CA). The following primary antibodies were used for immunoblotting: α-E-cadherin (BD Transduction Laboratories, Franklin Lakes, NJ), α-MMP2 (Abcam), α-DNMT3a (Santa Cruz Biotechnologies, Dallas, TX), and α-GAPDH (Millipore Corp., Bedford, MA), used as a loading control. The immune complexes were detected with horseradish peroxidase-conjugated species-specific secondary antiserum (Bio-Rad Laboratories, Milan, Italy) then by enhanced chemiluminescence reaction (Bio-Rad Laboratories, Milan, Italy). Densitometric analysis of protein expression was performed by using the Fiji ImageJ image processing package.
GAPDH was used as a loading control. Blots are representative of two independent experiments

- IC50 (MDA-MB-231): 8.5 ± 7.2 µM
- IC50 (PC-3): 5 ± 0.6 µM
- IC50 (RAJI): 7.8 ± 0.7 µM
SMILES: Cc1cc(Nc2ccc(NC(=O)c3ccc(Nc4ccnc5ccccc45)cc3)cc2)nc(N)n1 [SGI-1027, reference compound]
- IC50 (KG-1): 3.6 ± 0.6 µM
- IC50 [1]: 6.7 ± 1.3 µM
- IC50 [2]: 18.1 ± 6.8 µM
- DNMT3A protein expression level (western blot), HCT116 [3]: moderate effect on DNMT3A expression level
